According to US12383633B1, “Injectable formulations of PARP inhibitors and uses thereof” (ZYMERON CORPORATION, priority 2024, dated 2025):
Where two headings read alike, the source gives them in different places.

Experiments:
[1] = Experimental: (§1) 2.5 mL solutions of each excipient with each concentration were prepared by serial dilution of the saturated solution. One vial for each excipient experiment was prepared with 2.5 ml water. To each vial, 50 mg olaparib was added, sonicated, vortexed, and shaken at 40° C. for over 20 hr. After agitation at 25° C., the suspensions were filtered to obtain clear solutions. The clear solutions were analyzed using HPLC.
as §1, with “600 mg/mL” for “saturated”, “mL” for “ml”, “hours.” for “hr.”

[2] = cited from earlier work
[3] = assay type: physicochemical
Experimental: (§2) Sulfobutylether-β-cyclodextrin-enabled olaparib solubility enhancement experiments were conducted at various olaparib and sulfobutylether-β-cyclodextrin concentrations (FIG. 5). The dissolved quantity of olaparib increased when the concentration of sulfobutylether-β-cyclodextrin increased, indicating the formation of a 1:1 complex between the drug and solubilizer. The apparent complexation constant (K1:1) was calculated to be 432.4 M^−1 at 22° C.
This would be equivalent to >10 and >50 molar and weight ratios, respectively.
as §2, with “rucaparib” for “olaparib”, “6).” for “5).”, “596.7” for “432.4”

[4] = direct injection of 30-40% (w/v), preclinical studies; cited from earlier work

Row | Solubility Enhancement Factor [1] | olaparib water solubility improvement by excipient [1] | apparent complexation constant (K1:1) [3] [M⁻¹] | Molecule | also measured
1 | 1 |  |  | OC[C@@H](O)[C@@H](O)[C@H](O)[C@H](O)CO [D-mannitol] | saturated water solubility ([2]; 25° C.): 216 mg/mL
2 | 324 | more than 100 fold |  | CC(O)COC[C@H]1O[C@@H]2O[C@H]3[C@H](O)[C@@H](O)[C@@H](O[C@H]4[C@H](O)[C@@H](O)[C@@H](O[C@H]5[C@H](O)[C@@H](O)[C@@H](O[C@H]6[C@H](O)[C@@H](O)[C@@H](O[C@H]7[C@H](O)[C@@H](O)[C@@H](O[C@H]8[C@H](O)[C@@H](O)[C@@H](O[C@H]1[C@H](O)[C@H]2O)O[C@@H]8COCC(C)O)O[C@@H]7COCC(C)O)O[C@@H]6COCC(C)O)O[C@@H]5COCC(C)O)O[C@@H]4COCC(C)O)O[C@@H]3COCC(C)O (stereo partly drawn) [HP-β-cyclodextrin, 2-hydroxypropyl-β-cyclodextrin] | 
3 |  |  | 432.4 | O=C(c1cc(Cc2n[nH]c(=O)c3ccccc23)ccc1F)N1CCN(C(=O)C2CC2)CC1 [olaparib] | equivalent weight ratio sulfobutylether-β-cyclodextrin to olaparib ([3]; to achieve 5 mg/ml olaparib): > 50; water solubility [2]: < 0.07 mg/mL
4 |  |  | 596.7 | CNCc1ccc(-c2[nH]c3cc(F)cc4c3c2CCNC4=O)cc1 [rucaparib] | water solubility ([2]; across the physiological pH range): around 1 mg/mL
5 | 10 | 10 fold |  | OC[C@H]1O[C@@H]2O[C@H]3[C@H](O)[C@@H](O)[C@@H](O[C@H]4[C@H](O)[C@@H](O)[C@@H](O[C@H]5[C@H](O)[C@@H](O)[C@@H](O[C@H]6[C@H](O)[C@@H](O)[C@@H](O[C@H]7[C@H](O)[C@@H](O)[C@@H](O[C@H]8[C@H](O)[C@@H](O)[C@@H](O[C@H]1[C@H](O)[C@H]2O)O[C@@H]8CO)O[C@@H]7CO)O[C@@H]6CO)O[C@@H]5CO)O[C@@H]4CO)O[C@@H]3CO [β-cyclodextrin] | 
6 |  |  |  | sulfobutylether-β-cyclodextrin [Sulfobutylether β-cyclodextrin] | hypertonicity-related adverse effects [4]: did not lead to any hypertonicity-related adverse effects
